Source: publication PMC9330042, “Synthesis and Biological Studies of Novel Aminophosphonates and Their Metal Carbonyl Complexes (Fe, Ru)” (International Journal of Molecular Sciences, 2022)

What follows are compounds tested on V79 cell line (assay: MTT cytotoxicity test). Details: V79 cells, 24 h, tested range 100–1000 µM; viability below 70% indicates cytotoxicity.
Type: cell-based, Cricetulus griseus
Description: Cell viability below 70% indicates cytotoxicity.
V79 cells (Cricetulus griseus lung fibroblast cell line) (European Collection of Cell Culture) were grown in MEM (PAN-Biotech, Aidenbach, Germany) containing 2 mM glutamine (Sigma Aldrich, Darmstadt, Germany)), 1% non-essential amino acids (Biological Industries, Cromwell, U.S), 10% FBS (Biowest, Nuaillé, France), and 100 units/mL penicillin and […] (Biological Industries, Cromwell, U.S). Cells were plated and grown in an incubator at 37 °C with 5% CO2 to 80% confluence before the initiation of the assay.
V79 cells were seeded at a density of 1 × 10^4 cells per well and were incubated for 24 h. After 24 h, the medium was removed from the wells, and cells were exposed to the compound solutions over a range of concentrations or nothing but culture medium (blank control). Cells were further incubated for an additional 24 h. At the end, the medium was removed and MTT solution (0.75 mg/mL) was added. Next, plates were incubated in the dark for 2 h at 37 °C. Then, the MTT solution was removed and DMSO was added to each well. Plates were incubated for 10 min at room temperature. The absorbance at 570 nm was measured on a microplate reader. Cell viability was expressed as a percentage of the control values (blank).
In the case of `CCOP(=O)(Cc1ccccc1CN)OCC` [8a], the “Cytotoxicity (in words)” value was “Non-toxic”. For `CCOP(=O)(Cc1cccc(CN)c1)OCC` [8b], the “Cytotoxicity (in words)” value was “Non-toxic”. With `CCOP(=O)(Cc1ccc(CN)cc1)OCC` [8c] the “Cytotoxicity (in words)” value was “Non-toxic”.
